Experimental data published in US11319300B2, “Polyfluoro-substituted aromatic heterocyclic derivative, pharmaceutical composition containing same, and applications thereof” (ZHEJIANG UNIVERSITY, priority 2017, dated 2022).
Marks after values point to notes of the source that are not given here.

Tests used:
HGC27 = test: Tumour cell proliferation inhibition, MTT assay, HGC27; type: cell-based, human; conditions: 72 hours
MCF-7 = test: Tumour cell proliferation inhibition, MTT assay, MCF-7; type: cell-based, human; conditions: 72 hours
786-O = test: Tumour cell proliferation inhibition, MTT assay, 786-O; type: cell-based, human; conditions: 72 hours
HCT-116 = test: Tumour cell proliferation inhibition, MTT assay, HCT-116; type: cell-based, human; conditions: 72 hours
Protocol: Compound AZD5363 (NCT02208375, NCT02208375, NCT01625286), which have entered the clinical phase II study, was used as a positive control, and the compound was assayed against common tumour cell lines (human ovarian cancer cell line OVCAR-8 and human colon cancer cell line HCT-116) by MTT assay, at the same time, the akt1 enzyme inhibitory activity (IC50) was evaluated using a commercial Akt1 kit.
1) The pharmacological test method for the tumour cell proliferation inhibiting activity of the compound of the present invention was as follows:
The first was the determination of in vitro tumour growth inhibitory activity and the preliminary structure-activity relationship study, and different solid tumour cell lines were used to determine the in vitro antitumour activity of the synthesized compounds.
Experimental materials: cell lines: human ovarian cancer cells (OVCAR8), colon adenocarcinoma cells (HCT-116),
Medium: OVCAR8: RPMI 1640+fetal calf serum
Drug preparation method: dissolving the drug in DMSO to make a 50 mM of stock solution, and diluting it to a certain ratio to obtain 5 different concentrations.
Tumour Cells being Cultured In Vitro:
The selected tumour cells were incubated in a, 5% of CO2 cell incubator at 37° C., and passaged until the cell density was 70 to 90% (the adherent cells were passaged with Duck's EDTA) and used for subsequent experiments.
The compound was dissolved in dimethyl sulfoxide (DMSO), diluted, and tumour cells were seeded into 4000 cells/200 μL/well in 96-well plates, and 1 μL of compound was added to each well to a final concentration of 50 μM, 10 μM, 2 μM, and 0.4 μM. 0.08 μM were incubated in a, 5% of CO2 cell incubator at 37° C. for 72 hours with DMSO (1%) as a blank control.
The calculation formula of the cell inhibition rate is: cell inhibition rate %=(control group OD value−drug group OD value)/control cell OD value×100%, and the half inhibition concentration (IC50) was determined by the Bliss method.

CEM-C1 = test: Tumour cell proliferation inhibition, MTT assay, CEM-C1; type: cell-based, human; conditions: 72 hours
hERG potassium channel = biological target: T1, hERG potassium channel (Homo sapiens, UniProt Q12809); test: hERG potassium channel inhibition, manual whole-cell patch clamp in CHO hERG cells; type: cell-based; conditions: for hERG (Inhibition rate at 3 μM concentration): CHO hERG cells, patch clamp
T1 construct: host or cells: CHO
T1 sequence (Q12809 whole entry): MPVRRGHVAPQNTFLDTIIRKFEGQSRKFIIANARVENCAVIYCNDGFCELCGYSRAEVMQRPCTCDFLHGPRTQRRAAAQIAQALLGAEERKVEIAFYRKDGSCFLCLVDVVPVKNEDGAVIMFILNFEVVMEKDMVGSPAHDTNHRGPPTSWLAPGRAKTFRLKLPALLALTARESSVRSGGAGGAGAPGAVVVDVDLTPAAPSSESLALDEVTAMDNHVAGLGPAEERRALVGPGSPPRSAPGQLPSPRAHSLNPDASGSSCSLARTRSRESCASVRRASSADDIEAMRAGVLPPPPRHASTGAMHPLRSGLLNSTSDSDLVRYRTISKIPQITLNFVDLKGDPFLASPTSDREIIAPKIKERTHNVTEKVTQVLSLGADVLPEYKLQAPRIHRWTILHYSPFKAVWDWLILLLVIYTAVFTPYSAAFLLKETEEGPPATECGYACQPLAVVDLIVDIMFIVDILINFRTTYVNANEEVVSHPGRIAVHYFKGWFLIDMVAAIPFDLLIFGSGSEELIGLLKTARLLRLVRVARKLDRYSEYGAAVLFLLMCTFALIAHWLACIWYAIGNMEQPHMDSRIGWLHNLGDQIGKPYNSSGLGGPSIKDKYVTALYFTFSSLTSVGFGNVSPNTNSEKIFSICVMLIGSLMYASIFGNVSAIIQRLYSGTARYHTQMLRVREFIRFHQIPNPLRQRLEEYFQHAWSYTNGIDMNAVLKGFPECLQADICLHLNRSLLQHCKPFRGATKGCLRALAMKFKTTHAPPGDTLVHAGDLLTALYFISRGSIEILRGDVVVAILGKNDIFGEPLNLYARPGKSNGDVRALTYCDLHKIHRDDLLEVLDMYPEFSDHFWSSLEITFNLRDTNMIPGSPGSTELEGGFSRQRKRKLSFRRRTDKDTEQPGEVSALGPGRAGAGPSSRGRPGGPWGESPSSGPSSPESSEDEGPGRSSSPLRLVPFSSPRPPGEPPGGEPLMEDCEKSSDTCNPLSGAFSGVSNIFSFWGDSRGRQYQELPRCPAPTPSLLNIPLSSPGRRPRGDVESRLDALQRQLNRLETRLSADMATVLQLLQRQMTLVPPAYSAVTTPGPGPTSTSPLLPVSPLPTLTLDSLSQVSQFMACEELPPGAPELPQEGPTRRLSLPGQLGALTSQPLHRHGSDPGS
Protocol: A Sixty-Third Embodiment: hERG Potassium Channel Inhibition Activity Experiment
The cells used in this assay were CHO cell lines transfected with hERG cDNA and stably expressing the hERG channel (supplied by Sophion Bioscience, Denmark). The cells were cultured in medium containing the following components (all from Invitrogen): Ham's F12 medium, 10% (v/v) inactivated fetal bovine serum, 100 μg/ml hygromycin B, and 100 μg/ml Geneticin. 2.1.2CHO hERG cells were grown in a Petri dish containing the above culture solution, and cultured in an incubator containing 5% of CO2 at 37° C. 24 to 48 hours prior to electrophysiological experiments, CHO hERG cells were transferred to circular glass slides placed in petri dishes and grown under the same culture and culture conditions as above. The density of CHO hERG cells on each circular slide requires that most cells achieve independent, individual requirements.
2. Compound Treatment and Dilution
To obtain the IC50 of the compound, we selecte the following concentrations (30, 10, 3, 1, 0.3, and 0.1 μM) for testing. Prior to testing, the […] were first diluted to 10, 3, 1, 0.3, and 0.1 mM stock solution in gradual dilution with DMSO and then diluted to the final μM test concentration with extracellular fluid. The final concentration of DMSO in each of the other compound solutions was 0.1% except that the DMSO concentration in the 30 μM compound test solution was 0.3%. The positive control Cisapride (cishabili) was tested at a concentration of 0.1 μM. All compound solutions were sonicated and shaken for 5 to 10 minutes to ensure complete dissolution of the compound.
3. Electrophysiological Recording System and Data Analysis
This experiment uses a manual patch clamp system (HEKA EPC-10 signal amplifier and digital conversion system, purchased from HEKA Electronics, Germany) for the recording of whole cell currents. Round slide with CHO hERG cells on the surface was placed in an electrophysiology recording cell under an inverted microscope. The extracellular fluid was continuously perfused in the recording tank (about 1 ml per minute). The experimental procedure uses conventional whole-cell patch clamp current recording techniques. Unless otherwise stated, the experiments were carried out at regular room temperature (˜25° C.). The cells were clamped at a voltage of −80 mV. The cell clamp voltage was depolarized to +20 mV to activate the hERG potassium channel, and after 5 seconds it was clamped to −50 mV to eliminate inactivation and generate tail current. The tail current peak was used as the value of the hERG current magnitude. After the hERG potassium current recorded in the above step was stabilized under the continuous extracellular fluid perfusion in the recording tank, the drug to be tested can be superimposed and filled until the inhibitory effect of the drug on the hERG current reaches a steady state. Generally, the recent three consecutive current recording lines were recombined as a criterion for judging whether or not the state is stable. After reaching a steady state, extracellular fluid perfusion rinse until hERG current returns to the size before adding drug. One cell can test one or more drugs, or multiple concentrations of the same drug, but need to be flushed with extracellular fluid between different drugs. Cisapride (cisapride, purchased from Sigma) was used in the experiment as a positive control to ensure that the cells used were of normal quality. The test data was analysed by HEKA Patchmaster, Microsoft Excel and data analysis software provided by Graphpad Prism.

[1] = Oral pharmacokinetic experiment in SD rats; type: in vivo; conditions: oral administration; for 1/2 / AUC0-inf / AUC0-t / Cmax / Tmax: 20 mg/kg, mean n = 3; for Cmax / Tmax: rat
Protocol: […] The blood sampling times of the tail vein administered by intragastric administration were 0.25, 0.5, 1, 2, 4, 6, 8, 10, 24 hours; the times of blood collection by intravenous administration were 0.05, 0.1, 0.17, 0.5, 1, 2, 4, 6, 8, 10, 24 hours. 0.3 ml of whole blood was taken, and after centrifugation, 0.1 ml of plasma was taken and analysed by LC-MS.

[2] = system: human gastric cancer HGC27 nude mice xenografts; test: In vivo antitumour activity, human gastric cancer HGC27 nude mice xenografts; conditions: HGC27 xenograft, 50 mg/kg intragastric once a day; for Tumour volume D1: D1 (start)
Protocol: (§1) A Sixty-Fifth Embodiment: In Vivo Antitumour Activity of Compounds
(§2) 1) Establishment of a nude mouse xenograft model: 1×10^7 test tumour cells were injected into the armpit of nude mice, after three generations, HGC27 mouse tumour blocks were dissected and placed in a glass dish containing physiological saline, after the necrotic area was removed by incision, the tumour mass was cut into 1-2 mm^3 and inserted into the left axilla of the nude mouse with a trocar.
(§3) 2) Animal grouping and drug delivery arrangements: after the tumour grows to an average volume of 100-300 mm^3, 20 mice were randomly grouped according to the tumour volume, and the above test animals were given the corresponding test substances by intragastric administration at a dose of 10 mL/kg with once a day.
(§4) 3) Data measurement and statistics: The tumour volume was weighed and measured twice and dosing period was 21 days. On the 22nd day, after the body weight was weighed and the tumour volume was measured, the nude mice were sacrificed and the tumours were weighed to calculate the relative tumour volume (RTV), relative tumour growth rate (T/C) and tumour inhibition percentage (IR) for statistical testing. The calculation formula was as follows: (a) TV (tumour volume)=½×a×b^2, wherein a and b represent the length and width of the tumour respectively, (b) RTV (relative tumour volume)=Vt/V0, Where V0 is the tumour volume measured at the time of group administration (i.e. d0), Vt is the tumour volume at each measurement, (c) T/C (%)=TRTV/CRTV×100%, wherein TRTV is the RTV of treatment group, CRTV is the RTV of the solvent control group, (d) IR (%)=(1−TWt/TWc)×100%, wherein TWt is the tumour weight of the treatment group, and TWc is the tumour weight of the solvent control group.

[3] = system: human ovarian cancer SKOV3 nude mice xenografts; test: In vivo antitumour activity, human ovarian cancer SKOV3 nude mice xenografts; conditions: SKOV3 xenograft, 50 mg/kg
[4] = system: human kidney cancer 786-O nude mice xenografts; test: In vivo antitumour activity, human kidney cancer 786-O nude mice xenografts; conditions: 786-O xenograft; for Tumour volume D1: D 1 (start); for Tumour volume D1 / RTV: x ± SE; for Tumour volume D 21: D 21, x ± SE
Protocol: [Worded in the source for another cell line; this cell line is reported under the same test.] as §1, §2, §3, §4

[5] = same concentration (3 μM), ratio of inhibition rates

Question: Which results are given for Cn1nccc1-c1ccc(C(=O)N[C@@H]2CNCC[C@H]2c2ccc(F)c(F)c2)c(F)c1 [VII-1a]?
Answer: IC50 (HGC27): 40 nM; IC50 (MCF-7): 2250 nM; IC50 (786-O): 560 nM; IC50 (HCT-116): 1340 nM; IC50 (CEM-C1): 100 nM; hERG (Inhibition rate at 3 μM concentration) (hERG potassium channel): 15.9%; 1/2 [1]: 3.34 h; AUC0-inf [1]: 1500 ng·h/mL; AUC0-t [1]: 1480 ng·h/mL; Cmax ([1]; plasma): 132 ng/mL; Tmax ([1]; plasma): 4.17 h; RTV [2]: 11.37 ± 3.07; T/C(%) [2]: 26.95%; Tumour volume D1 [2]: 213 ± 102 mm^3; Tumour volume D22 [2]: 1498 ± 206* mm^3

Question: Which “hERG (Inhibition rate at 3 μM concentration)” value (hERG potassium channel) does the source give for Cn1nccc1-c1ccc(C(=O)N[C@@H]2CNCC[C@H]2c2ccc(F)c(F)c2)c(F)c1.O=C(O)C[C@H](O)C(=O)O [VII-30] here?
Answer: 20%

Question: And the “hERG blocking effect relative to GSK2141795” value (hERG potassium channel; [5])?
Answer: 0.4

Question: And the “hERG blocking effect relative to compound 31 (WO2015/144021A1)” value (hERG potassium channel; [5])?
Answer: 0.32

Question: What about the “1/2” value [1] of the same molecule?
Answer: 3.63 h

Question: And the AUC0-inf [1]?
Answer: 2390 ng·h/mL

Question: What about the AUC0-t [1] of the same molecule?
Answer: 2350 ng·h/mL

Question: What about the “improvement of AUC0-t over VII-1a” value ([1]; salt versus free form VII-1a) of the same molecule?
Answer: 58%

Question: And the Cmax ([1]; in vivo)?
Answer: 253 ng/mL

Question: And the Tmax ([1]; in vivo)?
Answer: 1.75 h

Question: What about the RTV [2] of the same molecule?
Answer: 7.29 ± 3.03

Question: What about the “T/C(%)” value [2] of the same molecule?
Answer: 17.27%

Question: And the “Tumour volume D1” value [2]?
Answer: 215 ± 88 mm^3

Question: What about the “Tumour volume D22” value [2] of the same molecule?
Answer: 1157 ± 452* mm^3

Question: What about the “T/C(%)” value [3] of the same molecule?
Answer: 32.96%

Question: What about the “Tumour volume D1” value ([3]; D 1 (start), x ± SE) of the same molecule?
Answer: 117 ± 65 mm^3

Question: And the “Tumour volume D22” value ([3]; D 22, x ± SE)?
Answer: 248 ± 19* mm^3

Question: And the RTV ([3]; x ± SE)?
Answer: 3.60 ± 2.67

Question: And the “T/C(%)” value ([4]; 50 mg/kg)?
Answer: 22.86%

Question: And the “Tumour volume D1” value ([4]; 50 mg/kg)?
Answer: 125 ± 14 mm^3

Question: What about the “Tumour volume D 21” value ([4]; 50 mg/kg) of the same molecule?
Answer: 328 ± 105** mm^3

Question: And the RTV ([4]; 50 mg/kg)?
Answer: 2.62 ± 0.83

Question: And the “T/C(%)” value ([4]; 100 mg/kg)?
Answer: 9.26%

Question: And the “Tumour volume D1” value ([4]; 100 mg/kg)?
Answer: 126 ± 13 mm^3

Question: What about the “Tumour volume D 21” value ([4]; 100 mg/kg) of the same molecule?
Answer: 127 ± 51** mm^3

Question: And the RTV ([4]; 100 mg/kg)?
Answer: 1.06 ± 0.43
